pIC50: −log10 of the molar value.
Target: T1, RIPK1 (Mus musculus, UniProt Q60855)
T1 construct: endogenous in cells; host or cells: immortalized mouse embryonic fibroblasts (MEFs, C57Bl6/J)
T1 sequence (Q60855 1-656): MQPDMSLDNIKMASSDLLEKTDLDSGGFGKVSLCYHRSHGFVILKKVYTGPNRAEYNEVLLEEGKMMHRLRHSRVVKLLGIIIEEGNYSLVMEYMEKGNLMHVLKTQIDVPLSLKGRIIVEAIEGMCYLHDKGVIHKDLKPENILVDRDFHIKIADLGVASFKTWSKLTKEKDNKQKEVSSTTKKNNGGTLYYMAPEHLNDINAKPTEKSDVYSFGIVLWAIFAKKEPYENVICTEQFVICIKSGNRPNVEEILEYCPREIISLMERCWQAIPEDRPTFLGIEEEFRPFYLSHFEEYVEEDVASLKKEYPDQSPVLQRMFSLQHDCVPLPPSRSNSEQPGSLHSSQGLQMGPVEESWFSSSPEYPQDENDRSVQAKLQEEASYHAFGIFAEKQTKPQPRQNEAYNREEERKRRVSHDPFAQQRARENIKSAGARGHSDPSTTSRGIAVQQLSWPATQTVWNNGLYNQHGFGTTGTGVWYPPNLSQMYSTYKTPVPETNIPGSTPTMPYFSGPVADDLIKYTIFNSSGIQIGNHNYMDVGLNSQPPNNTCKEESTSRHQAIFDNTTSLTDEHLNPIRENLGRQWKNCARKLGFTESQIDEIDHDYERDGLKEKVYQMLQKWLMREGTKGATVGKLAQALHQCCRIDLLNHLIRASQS
Assay: RIPK1 autophosphorylation (pS166) by Western blot in MEFs stimulated with hTNF + TAK1i + zVAD.fmk
Assay type: cell-based
Conditions: immortalised MEFs, 30 min pretreatment with zVAD.fmk 50 μM, TAK1i 1 μM and compound, hTNF 20 ng/ml for 2.5 h, read-out: RIPK1 inhibition (IC50 estimated from a Western blot)
Protocol: MEFs were seeded in 6-well plates at a density of 300.000 cells/well in 2 mL. The next day, the cells were suspended in 1 mL of medium and pre-treated for 30 min with the indicated compounds at 1/5 dilutions series for PERK ranging from 5 to 0.04 µM and 1 μg/mL of Tm followed by 4 h treatment with 20 ng/mL of hTNF. For RIPK1, the cells were pre-treated at 1/10 dilutions series ranging from 10 to 0.01 nM, 50 µM zVAD.fmk and 1 µM TAKi before stimulation with 20 ng/mL of hTNF for 2.5 h. Then, the cells were washed two times with 1 mL of ice-cold PBS before lysis in 0.2 mL of Laemmli buffer 1x (10% (w/v) SDS, 50% glycerol, 0.5% bromophenol blue, 250 mM Tris–HCl pH 6.8) and 250 mM of dithiothreitol (DTT). The cell lysate was then collected and boiled at 95 °C for 10min and stored at −20°C. Proteins expression was later monitored by immunoblotting.
Activation of PERK was induced by stimulation of the cells with Tunicamycin, as previsouly reported ([Bull and Thiede, 2012]). More precisely, the immortalised MEFs were pre-incubated for 30 min with the analogues 18–34 at different concentrations (0.04, 0.2, 1, and 5 µM) prior to 4 h stimulation with Tunicamycin (1 μg/mL). […] Their activities were evaluated by comparing the intensity of the signal to unstimulated MEFs (considered as zero phosphorylation) and Tunicamycin stimulated cells (considered as 100% PERK phosphorylation). The 12 compounds (18–20, 22–29 and 34) that had lost their inhibitory capacity on PERK were then tested for their ability to inhibit RIPK1 as shown in Figures 6A–H. Activation and autophosphorylation of RIPK1 was induced by stimulating the cells with TNF in the presence of TAK1 inhibitor and of the pan-caspases inhibitor zVAD.fmk, a well established necroptotic trigger ([Vanlangenakker et al., 2011]). The MEFs were pre-incubated for 30 min with the different compounds (0.01 nM–1000 nM) and then stimulated with human TNF (20 ng/mL) for 2.5 h. Similar to the PERK assessment, IC50 values for RIPK1 inhibition were estimated as a range of concentrations, and are reported in Table 1. These experiments provide an estimation of the specificity of our analogues against PERK and RIPK1 in comparison to the benchmark GSK’157 already reported as a potent PERK and RIPK1 inhibitor.

SMILES: Cn1cc(-c2ccc3c(c2F)CCN3C(=O)Cc2ccc(C(F)(F)F)cn2)c2c(N)ncnc21 [Compound 22]
- pIC50: 8.00 to 9.00
